Measurements published in patent publication US5336762A, “Polychelating agents for image and spectral enhancement (and spectral shift)” (priority 1991, dated 1994).

Assays:
[1] = cited from earlier work
[2] = In vitro T1 relaxation of water protons (IBM PC20 Minispectrometer, 20 MHz); type: physicochemical
Source text: Fe^+3 as the dextran-iron oxide (in which the iron is complexed loosely to the hydroxyl groups of dextran), was obtained as "Proferdex" (20% iron, w/w) (Fisons Pharmaceuticals) and tested, both before and after extensive dialysis (to remove loosely bound iron), for NMR T1-enhancing activity in vitro (using an IBM PC20 Minispectrometer, 20 MHz).

[3] = tested on: liver, spleen, kidney; experiment: In vitro T1 of excised rat organs (Example 18b); type: in vivo, Sprague-Dawley rats; conditions: same doses
Method: (§1) Test materials were injected intravenously into 500 gm Sprague-Dawley rats. At approximately 30 minutes, the rats were placed in the head coil of a 0.35 Tesla clinical imaging device (Diasonics Corp.), and T1-weighted images (using both a spin-echo pulse sequence at TR's of 0.5, 1.5 and 2.0, and an inversion recovery sequence) were obtained on image slices of 0.5 cm thickness taken through the liver and kidneys. T1 relaxation times were determined from the TR=0.5 and 2.0 data using area-averaging of signal intensities and a proprietary software program for calculations. At the completion of imaging, the rats were sacrificed by decapitation (exsanguination). Their livers, kidneys and spleens were excised, tested for in vitro correlations with the in vivo changes in proton T1 relaxation times and then placed in buffered formalin fixative for histopathologic evaluation.

[4] = cited from earlier work; remark: listed apart in the source
[5] = tested on: liver, kidney; experiment: Proton T1 relaxation times in mouse organs (Example 18a); type: in vivo, CBA mice; conditions: 30 min; Gd dose 0.23 mmol/kg (DEAE forms), 0.47 (dimeglumine)
Method: Test materials were injected i.v. into 25 gm CBA mice. At 30 min the mice were sacrificed by decapitation (exsanguination) and the excised livers and kidneys assessed for changes in proton T1 relaxation times (20 MHz; IR pulse sequence). Doses of test materials were made equivalent based on in vitro potency (ID50 analysis).

[6] = tested on: human brain tumors; conditions: preliminary studies; cited from earlier work
[7] = tested on: blood in heart chambers; experiment: T1-weighted blood flow images of cardiac chambers; type: in vivo, Sprague-Dawley rats; conditions: comparable Gd dose
Method: Gd:DTPA-dextran microspheres (at 0.3 mmoles Gd/kg) were injected i.v. at time zero into Sprague-Dawley rats and images were obtained immediately and serially each 5 minutes×4 (spin-echo, multi-echo, TR=0.5 and 1.5).

[8] = tested on: BRO human melanoma; experiment: MR imaging of human BRO melanoma in nude mice; type: in vivo, Swiss-strain nude mice bearing human melanoma
Method: These studies are performed using the rapidly proliferating, amelanotic, BRO human melanoma grown to a weight of 2.0-6.0 gms in the axillary soft tissues of Swiss-strain nude mice. The amelanotic nature of the tumor avoids any potential for alteration of unenhanced tissue-relaxation times by naturally occurring paramagnetic substances which have been described for pigmented melanomas. The axillary location of tumors allows imaging of the tumor and liver in adjacent slices. This shortens the imaging time for each group of mice and provides maximal anatomic separation of tumors from the higher-intensity kidneys and bladder. MR imaging is performed on a Diasonics 0.35T instrument, using a 30-cm rf coil, and a T1-weighted spin-echo pulse sequence (TR 500, TE 40). Pentobarbital is used for animal anesthesia in order to avoid drug modulation of image intensities. T1 relaxation were performed on the freshly excised organs. In general, these T1's decreased in proportion to increased image intensities. […] The new soluble polymeric agent had the following advantages: […]

[9] = tested on: liver, kidney, bone marrow; experiment: In vivo MR imaging of normal tissues, Sprague-Dawley rats (0.35 Tesla)
Source text: (§2) Sprague-Dawley rats were imaged using a 0.35-Tesla, Diasonics clinical MR imaging system and a 30-cm rf coil. Three clinically relevant pulse sequences were used: 1) spin-echo with a TR of 0.5 seconds (for T1-weighted images), 2) inversion-recovery (IR) (for T1-weighted images), and 3) spin-echo with a TR of 2.0 seconds (for T2-weighted images). Diasonics software was used to calculate the area-averaged tissue intensities before and after injection of contrast agents. Dual pulse sequences (spin-echo, with TR's of 0.5 and 1.5 seconds or 1.0 and 2.0 seconds) were also used to calculate the in vivo T1 relaxation times. At the conclusion of imaging, the liver, spleen and kidneys were excised and their T1 (IR) and T2 (Carr-Purcell-Meiboom-Gill) relaxation times were determined at 37° C., using an IBM PC20 Minispectrometer. For these in vitro experiments, uninjected rats were used in place of preinjection controls.
Post-contrast images were obtained serially beginning immediately after the i.v. injection of contrast agents and continuing for several hours thereafter.

[10] = tested on: liver, kidney, bone marrow; experiment: In vivo MR imaging T1 in rats (Example 18b); set-up: species or system Sprague-Dawley rats; conditions: Gd 0.30 (soluble), 0.15 (microspheres), 0.30 (dimeglumine) mmol/kg; ~30 min
Method: as §1

[11] = tested on: 7777-strain Morris hepatoma; experiment: MR imaging of Morris hepatoma (7777) in Buffalo rats; type: in vivo, Buffalo-strain rats; conditions: after injection
Method: After two to three weeks the local tumors had reached an average diameter of 0.5 and 1.0 cm. The rats were then imaged both before and after i.v. injections of Gd-DTPA or microsphere Gd-DTPA. MR imaging was performed in a 30cm rf coil with a 0.35 Tesla, Diasonics clinical MRI system (as described above). Post-contrast images were obtained serially beginning immediately after injection and continuing for several hours thereafter.

[12] = tested on: spleen; experiment: T1 of freshly excised rat spleens; type: in vivo, Sprague-Dawley rats; conditions: 30 min post vs. pre
Source text: as §2

[13] = tested on: liver; experiment: Liver T1 decrease in mice; type: in vivo; conditions: usual 30-minute imaging interval; 0.10 to 0.30 mmoles/kg
[14] = 30 min post vs. pre, Gd 0.3 mmoles/kg dimeglumine, 0.009 mmoles/kg microspheres

Question: With `O=C(O)CN1CCN(CC(=O)O)CCN(CC(=O)O)CCN(CC(=O)O)CC1` [DOTA, 1,4,7,10-tetraazacyclododecane-N,N',N"-tetraacetic acid] as the molecule, how does the “relaxivity, times that of Gd-DTPA” value ([1]; wide range of Larmor frequencies) read?
Answer: The value was “approximately 2 times”.

Question: For `O=[N+]([O-])[O-].O=[N+]([O-])[O-].O=[N+]([O-])[O-].[Fe+3]` [Ferric nitrate], which R1 relaxivity ([2]; Table 1, iron compounds) is on record?
Answer: Its R1 relaxivity is 1.476 mmol⁻¹ s⁻¹.

Question: For `CNC[C@H](O)[C@@H](O)[C@H](O)[C@H](O)CO.CNC[C@H](O)[C@@H](O)[C@H](O)[C@H](O)CO.O=C([O-])CN(CCN(CC(=O)[O-])CC(=O)O)CCN(CC(=O)[O-])CC(=O)O.[Gd+3]` [Gd:DTPA dimeglumine], which “T1 (% of control), in vitro, liver” value ([3]; control 275 msec) is on record?
Answer: The value was 88%.

Question: What about the “T1 (% of control), in vitro, spleen” value ([3]; control 464 msec) of the same molecule?
Answer: The value was 86%.

Question: What about the “T1 (% of control), in vitro, kidney” value ([3]; control 492 msec) of the same molecule?
Answer: Its value is 25%.

Question: What about the “clearance half-time from bloodstream and tumors” value ([4]; in vivo) of the same molecule?
Answer: Its value is 20 min.

Question: What about the “sequestered in the kidneys” value ([4]; intravenous) of the same molecule?
Answer: The value was > 90%.

Question: And the “T1 (% of control), kidney” value [5]?
Answer: Its value is 24%.

Question: And the “T1 (% of control), liver” value [5]?
Answer: The value was 83%.

Question: What about the “enhancement of human brain tumors” value [6] of the same molecule?
Answer: Its value is “almost all human brain tumors undergo significant enhancement”.

Question: And the “enhancement of blood flow images” value [7]?
Answer: Its value is “almost completely ineffective”.

Question: And the “ID50 (total weight), concentration reducing T1 to 50% of buffered saline” value ([2]; 20 MHz, phosphate-buffered saline)?
Answer: Its value is 84 mg/L.

Question: What about the “enhancement of BRO melanoma” value ([8]; 0.03 mmols Gd per kg) of the same molecule?
Answer: The value was “barely perceptible”.

Question: What about the “dose required for enhancement, higher than 0.03 mmols Gd per kg” value ([8]; in vivo) of the same molecule?
Answer: Its value is 1/2.

Question: And the “% decrease in T1, kidney” value [9, 14]?
Answer: The value was 55.7%.

Question: What about the “% decrease in T1, liver” value [9, 14] of the same molecule?
Answer: The value was 24.6%.

Question: And the “time after which all liver enhancement was lost” value ([9]; rat, in vivo)?
Answer: The value was 50 min.

Question: And the “T1 (% of control), in vivo, kidney” value [10]?
Answer: The value was 57%.

Question: What about the “T1 (% of control), in vivo, liver” value [10] of the same molecule?
Answer: Its value is 83%.

Question: What about the “time by which contrast was significantly reduced” value [11] of the same molecule?
Answer: The value was ≤ 1.5 h.

Question: What about the “% decrease in T1 of spleen” value [12] of the same molecule?
Answer: Its value is 14.4%.

Question: And the “changes in liver T1” value [13]?
Answer: Its value is “minimal changes in liver Tl's”.

Question: What about the “relaxivity at higher radio frequencies” value ([1]; typically 15 MHz) of the same molecule?
Answer: Its value is “marked decrease in relaxivity”.

Question: Which “R1 (in vitro T1 relaxivity)” value ([2]; physiologic saline) does the source give for `[Cl][Gd]([Cl])[Cl]` [GdCl3] here?
Answer: Its value is 3.03 mM⁻¹ s⁻¹.
